Laboratory results from patent US10941157B2, “Pesticidal compositions and uses thereof” (Gilead Apollo, LLC, priority 2015, dated 2021).
Values after ≈ are worked out from the molar mass of the structure shown.

What was measured:
Format in all cases: cell-based
[1] = test system: Diplodia maydis (Dm); test: In vitro pathogen growth inhibition assay, Dm; details: Stenocarpella maydis, 48 h, ≥90% inhibition; 48 hours vs 2% DMSO control; read-out: Compound Concentration (ppm) sufficient for ≥90% inhibition of growth, Dm
How it was run: (§1)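 Spores in 17% V8 liquid medium, or 1.5 mm Rs mycelial plugs in ¼ PDB, incubated with compound; final concentration checked by OD600 for precipitation. OD readings at 24 and 48 h, blank-subtracted, plus visual ratings; value is concentration giving ≥90% growth inhibition.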

[2] = test system: Phytophthora capsici (Pc); test: In vitro pathogen growth inhibition assay, Pc; details: 48 h, ≥90% inhibition, 48 hours vs 2% DMSO control, read-out: Compound Concentration (ppm) sufficient for ≥90% inhibition of growth, Pc
How it was run: as §1

[3] = test system: Septoria tritici (St); test: In vitro pathogen growth inhibition assay, St; details: Zymoseptoria tritici, 48 h, ≥90% inhibition; 48 hours vs 2% DMSO control; read-out: Compound Concentration (ppm) sufficient for ≥90% inhibition of growth, St
How it was run: (§2)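 Value reported is the compound concentration reaching ≥90% growth inhibition, from OD readings at 24 and 48 h after blank subtraction, confirmed visually. Inoculum was spores diluted in 17% V8 medium, except Rs, using 1.5 mm mycelial plugs in ¼ PDB; actual compound concentration corrected via OD600.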

[4] = test system: Rhizoctonia solani (Rs); test: In vitro pathogen growth inhibition assay, Rs (mycelial plugs); details: Rhizoctonia solani, 48 h, ≥90% inhibition; mycelial plugs; 48 hours vs 2% DMSO control; read-out: Compound Concentration (ppm) sufficient for ≥90% inhibition of growth, Rs
How it was run: as §1

[5] = test system: Fusarium moniliforme (Fm); test: In vitro pathogen growth inhibition assay, Fm; details: Fusarium verticillioides; ≥90% inhibition; 48 hours vs 2% DMSO control; read-out: Compound Concentration (ppm) sufficient for ≥90% inhibition of growth, Fm
How it was run: as §2

[6] = test system: Collectotrichum graminicola (Cg); test: In vitro pathogen growth inhibition assay, Cg; details: 48 h, ≥90% inhibition; 48 hours vs 2% DMSO control; read-out: Compound Concentration (ppm) sufficient for ≥90% inhibition of growth, Cg
How it was run: as §2

[7] = test system: Botrtyis cinerea (Bc); test: In vitro pathogen growth inhibition assay, Bc; details: 48 h, ≥90% inhibition; 48 hours vs 2% DMSO control; read-out: Compound Concentration (ppm) sufficient for ≥90% inhibition of growth, Bc
How it was run: as §2

[8] = test system: Fusarium virguliforme (Fv); test: In vitro pathogen growth inhibition assay, Fv; details: ≥90% inhibition, 48 hours vs 2% DMSO control, read-out: Compound Concentration (ppm) sufficient for ≥90% inhibition of growth, Fv
How it was run: as §1

Structure (SMILES) | IC90 [1] | IC90 [2] | IC90 [3] | IC90 [4] | IC90 [5] | IC90 [6] | IC90 [7] | IC90 [8]
COc1ccc(F)cc1[C@H](Cn1c(=O)n(C(C)(C)C(=O)N2CCCC2)c(=O)c2c(C)c(-n3nccn3)sc21)OC1CCC(=O)CC1 [Compound I-051] | ≥ 0.4 µg/mL | > 50 µg/mL | > 50 µg/mL | 0.4 µg/mL (≈ 0.613 µM) | 0.08 µg/mL (≈ 0.123 µM) | 0.4 µg/mL (≈ 0.613 µM) | 0.4 µg/mL (≈ 0.613 µM) | 0.4 µg/mL (≈ 0.613 µM)
COc1ccc(F)cc1[C@H](Cn1c(=O)n(C(C)(C)C(=O)N2CCCCC2)c(=O)c2c(C)c(-n3nccn3)sc21)OC1CCC(=O)CC1 [Compound I-052] | 2 µg/mL (≈ 3 µM) | > 50 µg/mL | > 50 µg/mL | 2 µg/mL (≈ 3 µM) | 0.08 µg/mL (≈ 0.12 µM) | ≥ 0.4 µg/mL | 0.4 µg/mL (≈ 0.6 µM) | 0.4 µg/mL (≈ 0.6 µM)
CCO[C@@H](Cn1c(=O)n(C(C)(C)C(=O)N2CCCC2)c(=O)c2c(C)c(-n3cccn3)sc21)c1cc(F)ccc1OC [Compound I-053] | ≥ 2 µg/mL | > 50 µg/mL | ≥ 50 µg/mL | 2 µg/mL (≈ 3.43 µM) | 0.08 µg/mL (≈ 0.137 µM) | 2 µg/mL (≈ 3.43 µM) | 0.4 µg/mL (≈ 0.685 µM) | 0.4 µg/mL (≈ 0.685 µM)
CCO[C@@H](Cn1c(=O)n(C(C)(C)C(=O)NC(C)C)c(=O)c2c(C)c(-n3nccn3)sc21)c1cc(F)ccc1OC [Compound I-054] | 0.4 µg/mL (≈ 0.698 µM) | > 50 µg/mL | 10 µg/mL (≈ 17.5 µM) | 0.4 µg/mL (≈ 0.698 µM) | 0.08 µg/mL (≈ 0.14 µM) | 0.4 µg/mL (≈ 0.698 µM) | 0.4 µg/mL (≈ 0.698 µM) | ≥ 0.08 µg/mL
CCO[C@@H](Cn1c(=O)n(C(C)(C)C(=O)N2CCCC2)c(=O)c2c(C)c(-n3nccn3)sc21)c1cc(F)ccc1OC [Compound I-055] | ≥ 0.4 µg/mL | > 50 µg/mL | ≥ 2 µg/mL | 0.4 µg/mL (≈ 0.684 µM) | 0.08 µg/mL (≈ 0.137 µM) | 0.08 µg/mL (≈ 0.137 µM) | 0.4 µg/mL (≈ 0.684 µM) | ≥ 0.08 µg/mL
COc1ccc(F)cc1[C@H](Cn1c(=O)n(C(C)C(=O)N2CCCC2)c(=O)c2c(C)c(-n3nccn3)sc21)OC(C)C (some centres unmarked) [Compound I-056] | 0.08 µg/mL (≈ 0.137 µM) | 30 µg/mL (≈ 51.3 µM) | 26 µg/mL (≈ 44.5 µM) | 0.24 µg/mL (≈ 0.41 µM) | 0.08 µg/mL (≈ 0.137 µM) | 0.08 µg/mL (≈ 0.137 µM) | 0.4 µg/mL (≈ 0.684 µM) | 0.24 µg/mL (≈ 0.41 µM)
COc1ccc(F)cc1[C@H](Cn1c(=O)n([C@@H](C)C(=O)NC(C)C)c(=O)c2c(C)c(-n3nccn3)sc21)OC(C)C [Compound I-057] | 0.4 µg/mL (≈ 0.698 µM) | 50 µg/mL (≈ 87.3 µM) | 50 µg/mL (≈ 87.3 µM) | 0.4 µg/mL (≈ 0.698 µM) | 0.08 µg/mL (≈ 0.14 µM) | 0.08 µg/mL (≈ 0.14 µM) | 0.4 µg/mL (≈ 0.698 µM) | 0.4 µg/mL (≈ 0.698 µM)
COc1ccc(F)cc1[C@H](Cn1c(=O)n([C@@H](C)C(=O)N2CCCC2)c(=O)c2c(C)c(-n3nccn3)sc21)OC(C)C [Compound I-058] | 0.08 µg/mL (≈ 0.137 µM) | ≥ 10 µg/mL | > 50 µg/mL | 0.4 µg/mL (≈ 0.684 µM) | 0.08 µg/mL (≈ 0.137 µM) | 0.08 µg/mL (≈ 0.137 µM) | 0.4 µg/mL (≈ 0.684 µM) | 0.08 µg/mL (≈ 0.137 µM)
COc1ccc(F)cc1[C@H](Cn1c(=O)n(CC(=O)N2CCCC2)c(=O)c2c(C)c(-n3nccn3)sc21)OC(C)C [Compound I-059] | 0.4 µg/mL (≈ 0.701 µM) | > 50 µg/mL | 10 µg/mL (≈ 17.5 µM) | 0.4 µg/mL (≈ 0.701 µM) | 0.08 µg/mL (≈ 0.14 µM) | 0.4 µg/mL (≈ 0.701 µM) | 0.08 µg/mL (≈ 0.14 µM) | ≥ 0.08 µg/mL
COc1ccc(F)cc1[C@H](Cn1c(=O)n(CC(=O)NC(C)C)c(=O)c2c(C)c(-n3nccn3)sc21)OC(C)C [Compound I-060] | 0.4 µg/mL (≈ 0.716 µM) | > 50 µg/mL | > 50 µg/mL | ≥ 2 µg/mL | 0.08 µg/mL (≈ 0.143 µM) | > 50 µg/mL | 0.4 µg/mL (≈ 0.716 µM) | 0.4 µg/mL (≈ 0.716 µM)
COc1ccc(F)cc1[C@H](Cn1c(=O)n([C@H](C)C(=O)NC(C)C)c(=O)c2c(C)c(-n3nccn3)sc21)OC(C)C [Compound I-061] | 0.4 µg/mL (≈ 0.698 µM) | > 50 µg/mL | > 50 µg/mL | 0.4 µg/mL (≈ 0.698 µM) | 0.08 µg/mL (≈ 0.14 µM) | 0.08 µg/mL (≈ 0.14 µM) | 0.4 µg/mL (≈ 0.698 µM) | 0.4 µg/mL (≈ 0.698 µM)
COc1ccc(F)cc1[C@H](Cn1c(=O)n(C(C)C(=O)N2CCCC2)c(=O)c2c(C)c(-n3cccn3)sc21)OC(C)C (some centres unmarked) [Compound I-062] | 1.2 µg/mL (≈ 2.06 µM) | 50 µg/mL (≈ 85.7 µM) | 50 µg/mL (≈ 85.7 µM) | 2 µg/mL (≈ 3.43 µM) | 0.08 µg/mL (≈ 0.137 µM) | 0.4 µg/mL (≈ 0.685 µM) | 0.4 µg/mL (≈ 0.685 µM) | 0.4 µg/mL (≈ 0.685 µM)
COc1ccc(F)cc1[C@H](Cn1c(=O)n([C@@H](C)C(=O)N2CCCC2)c(=O)c2c(C)c(-n3cccn3)sc21)OC(C)C [Compound I-063] | ≥ 0.4 µg/mL | > 50 µg/mL | ≥ 50 µg/mL | 2 µg/mL (≈ 3.43 µM) | 0.08 µg/mL (≈ 0.137 µM) | 0.4 µg/mL (≈ 0.685 µM) | 0.4 µg/mL (≈ 0.685 µM) | 0.4 µg/mL (≈ 0.685 µM)
COc1ccc(F)cc1[C@H](Cn1c(=O)n(C(C)(C)C(=O)NC(C)C)c(=O)c2c(C)c(-n3nccn3)sc21)OC[C@@H](C)O [Compound I-065] | 0.4 µg/mL (≈ 0.664 µM) | ≥ 2 µg/mL | ≥ 2 µg/mL | ≥ 0.08 µg/mL | 0.08 µg/mL (≈ 0.133 µM) | 0.4 µg/mL (≈ 0.664 µM) | 2 µg/mL (≈ 3.32 µM) | 0.4 µg/mL (≈ 0.664 µM)
COc1ccc(F)cc1[C@H](Cn1c(=O)n(C(C)(C)C(=O)NC(C)C)c(=O)c2c(C)c(-n3nccn3)sc21)OC[C@H](C)O [Compound I-066] | ≥ 0.4 µg/mL | 50 µg/mL (≈ 83 µM) | ≥ 10 µg/mL | ≥ 0.4 µg/mL | 0.08 µg/mL (≈ 0.133 µM) | ≥ 0.4 µg/mL | ≥ 0.4 µg/mL | 0.4 µg/mL (≈ 0.664 µM)
COc1ccc(F)cc1[C@H](Cn1c(=O)n(C(C)(C)C(=O)N2CC=CC2)c(=O)c2c(C)c(-n3nccn3)sc21)OC(C)C [Compound I-067] | 0.08 µg/mL (≈ 0.134 µM) | > 50 µg/mL | ≥ 2 µg/mL | 0.4 µg/mL (≈ 0.67 µM) | 0.08 µg/mL (≈ 0.134 µM) | 0.08 µg/mL (≈ 0.134 µM) | 0.4 µg/mL (≈ 0.67 µM) | 0.4 µg/mL (≈ 0.67 µM)
COCCOc1ccc(F)cc1[C@H](Cn1c(=O)n(C(C)(C)C(=O)NC(C)C)c(=O)c2c(C)c(-n3nccn3)sc21)OC(C)C [Compound I-068] | ≥ 0.08 µg/mL | > 50 µg/mL | ≥ 50 µg/mL | 0.4 µg/mL (≈ 0.634 µM) | 0.08 µg/mL (≈ 0.127 µM) | 0.4 µg/mL (≈ 0.634 µM) | 0.4 µg/mL (≈ 0.634 µM) | 0.4 µg/mL (≈ 0.634 µM)
Cc1c(-n2nccn2)sc2c1c(=O)n(C(C)(C)C(=O)NC(C)C)c(=O)n2C[C@H](OC(C)C)c1cc(F)ccc1OCC1COC1 [Compound I-069] | 0.4 µg/mL (≈ 0.622 µM) | > 50 µg/mL | ≥ 50 µg/mL | ≥ 0.4 µg/mL | 0.08 µg/mL (≈ 0.124 µM) | 0.4 µg/mL (≈ 0.622 µM) | 0.4 µg/mL (≈ 0.622 µM) | 0.4 µg/mL (≈ 0.622 µM)
Cc1c(-n2nccn2)sc2c1c(=O)n(C(C)(C)C(=O)NC(C)C)c(=O)n2C[C@H](OC(C)C)c1cc(F)ccc1OCC#N [Compound I-070] | 0.4 µg/mL (≈ 0.654 µM) | > 50 µg/mL | ≥ 10 µg/mL | 2 µg/mL (≈ 3.27 µM) | 0.08 µg/mL (≈ 0.131 µM) | 2 µg/mL (≈ 3.27 µM) | 0.4 µg/mL (≈ 0.654 µM) | 0.08 µg/mL (≈ 0.131 µM)
